This is an account of results in ChEMBL document CHEMBL1201862, “PubChem BioAssay data set” (2004).

Holding throughout (experiment): inhibition of tumour cell growth, NCI panel, 48 h
For assay [1], the system named is OVCAR-8.
In assay [2] the test system is NCI-H522.
Assay [3] concerns COLO 205.
The subject of assay [4] is PC-3.
For assay [5], the system named is OVCAR-4.
Assay [6] has as its system SNB-75.
For assay [7], the system named is SK-OV-3.
Assay [8] relates to Malme-3M.
In assay [9] the test system is SF-295.
The test system of assay [10] is K562.
Assay [11] concerns EKVX.
For assay [12], the system named is SF-268.
Assay [13] concerns SK-MEL-28.
For assay [14], the system named is SW-620.
The subject of assay [15] is ACHN.
The subject of assay [16] is M14.
In assay [17] the test system is HCT-15.
The subject of assay [18] is KM12.
Assay [19] relates to SK-MEL-5.
Assay [20] concerns HL-60.

Structures are written as SMILES.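 Exposure lasted 48 hours, with cells grown in 96-well plates and compounds tested at five concentrations. GI50 is the concentration that inhibits growth by half.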 Activity calls are given as the source filed them. Cut-off read from the data, not from the text of the source: active = GI50 up to about 1.1 µM and inactive = higher.

In the case of `CN(C)c1ccc2nc(CC(O)(C(F)(F)F)C(F)(F)F)ccc2c1`, the GI50 in assay [1], in assay [2], in assay [3], in assay [4], in assay [5] and in [6] was > 10 µM (inactive) in each case. The GI50 in [7], in assay [8], in [9], in assay [10], in assay [11] and in assay [12] was > 10 µM (inactive) throughout. Also, the GI50 was > 10 µM (inactive) in assay [13]; > 10 µM (inactive) in [14]; > 10 µM (inactive) in [15]; > 10 µM (inactive) in assay [16]; > 10 µM in [17]; > 10 µM (inactive) in assay [18]. For the same molecule, the GI50 in assay [19] was > 10 µM (inactive).

Regarding `NC(Cc1ccc(O)cn1)C(=O)O` (stereo not drawn), the GI50 in [1], in assay [2], in assay [3], in assay [4], in assay [5] and in assay [6] was > 100 µM (inactive) each time. In addition, the GI50 in assay [8], in [9], in [10], in [11], in [12] and in assay [13] was > 100 µM (inactive) throughout. For the same molecule, the GI50 in assay [14] was > 100 µM (inactive); in [15] it was > 100 µM (inactive); in assay [17], > 100 µM; in assay [18], > 100 µM (inactive); in [19], > 100 µM (inactive); in [20], 33.8 µM (inactive).

`COC(=O)C(/C(=N/NC(N)=O)C(=O)Nc1ccc(C)cc1)c1nc2ccc([N+](=O)[O-])cc2nc1O` (stereo not drawn): the GI50 in assay [1] was > 100 µM (inactive); in assay [2] it was 27.2 µM (inactive); in assay [4], > 100 µM (inactive); in assay [5], 50.2 µM (inactive); in assay [6], > 100 µM (inactive); in assay [7], > 100 µM (inactive). Also, the GI50 in [8] was > 100 µM (inactive); in [9], > 100 µM (inactive); in assay [10] it was > 100 µM (inactive); in assay [11], 56.1 µM (inactive); in assay [12], > 100 µM (inactive); in assay [13], > 100 µM (inactive). Also, the GI50 was > 100 µM (inactive) in assay [14]; > 100 µM (inactive) in assay [16]; 37.6 µM in [17]; 74.3 µM (inactive) in assay [18]; 57.9 µM (inactive) in assay [19].

Take `COc1cccc2c1CCc1c(-c3ccc(F)cc3)cc(-c3ccc4ccccc4n3)nc1-2`: the GI50 in assay [1], in [2], in assay [3], in [4], in assay [5] and in [6] was > 100 µM (inactive) each time. For the same molecule, the GI50 in assay [7], in assay [8], in assay [9], in assay [10], in assay [11] and in assay [12] was > 100 µM (inactive) each time. The GI50 is > 100 µM (inactive) in assay [14]; > 100 µM (inactive) in assay [15]; > 100 µM (inactive) in assay [16]; > 100 µM in assay [17]; > 100 µM (inactive) in assay [18]; > 100 µM (inactive) in assay [19].

On to `CCCn1cnc2c(/N=N/O)ncnc21`, for which the GI50 in assay [1], in assay [2], in assay [3], in assay [4], in assay [5] and in [6] was > 100 µM (inactive) in each case. Besides, the GI50 in assay [8], in assay [10], in assay [11], in assay [12], in [13] and in [14] was > 100 µM (inactive) throughout. Further, the GI50 is > 100 µM (inactive) in assay [15]; > 100 µM (inactive) in assay [16]; > 100 µM in assay [17]; > 100 µM (inactive) in assay [18]; > 100 µM (inactive) in assay [19]; > 100 µM (inactive) in [20].

Turning to `CC(C)C(/C=C/c1ccc(Cl)cc1)=N\NC(=S)NN`, the GI50 is 12 µM (inactive) in assay [1]; 6.58 µM (inactive) in assay [2]; 24.2 µM (inactive) in assay [3]; 36.5 µM (inactive) in [4]; 22.9 µM (inactive) in assay [6]; 33.7 µM (inactive) in [7]. Besides, the GI50 in [8] is 25.2 µM (inactive); in assay [9], 22.1 µM (inactive); in assay [10], 3.55 µM (inactive); in assay [12], 7.57 µM (inactive); in assay [13], 39.7 µM (inactive); in assay [14] it was 14.1 µM (inactive). Also, the GI50 in assay [15] was 10.6 µM (inactive); in assay [16], 18.9 µM (inactive); in assay [17], 5.98 µM; in [18], 23.8 µM (inactive); in [19], 33 µM (inactive); in [20] it was 4.99 µM (inactive).

In the case of `Cc1ccc(S(=O)(=O)ON2C(=O)c3cccc4cc([N+](=O)[O-])cc(c34)C2=O)cc1`, the GI50 in assay [1] was > 100 µM (inactive); in assay [2] it was 56.2 µM (inactive); in [3], 81.5 µM (inactive); in assay [4], > 100 µM (inactive); in assay [5] it was 93.1 µM (inactive); in assay [6], 41.9 µM (inactive). Besides, the GI50 in [7] is 38.9 µM (inactive); in [8] it was 44.2 µM (inactive); in assay [9] it was > 100 µM (inactive); in assay [11] it was > 100 µM (inactive); in assay [12] it was 79.3 µM (inactive); in [13], > 100 µM (inactive). For the same molecule, the GI50 in assay [14] is 66.1 µM (inactive); in assay [15], 62.1 µM (inactive); in assay [16], > 100 µM (inactive); in [17] it was 71 µM; in [18], 32.6 µM (inactive); in assay [19] it was 69.3 µM (inactive).

As to `Cc1ccccc1NC(=O)Cc1csc(N/N=C2\C(=O)Nc3ccccc32)n1`, the GI50 in [1] was 16.6 µM (inactive); in assay [2], 17.7 µM (inactive); in assay [3], > 100 µM (inactive); in [4], 18.6 µM (inactive); in assay [5], 21.8 µM (inactive); in assay [6], 55.1 µM (inactive). Also, the GI50 in assay [8] is 32.4 µM (inactive); in assay [9], 16.7 µM (inactive); in assay [10], 64.7 µM (inactive); in assay [11], 31.8 µM (inactive); in assay [12] it was 39.4 µM (inactive); in assay [13], 1 µM (active). The GI50 in assay [14] is 1 µM (active); in assay [15], 36.8 µM (inactive); in [16], 50 µM (inactive); in [17], 37.2 µM; in [18] it was 33.3 µM (inactive); in [19] it was 46.8 µM (inactive). Moreover, the GI50 in [20] is 22.3 µM (inactive).

Turning to `Cc1cc2c(nn1)CCc1c-2no[n+]1[O-]`, the GI50 in assay [1], in assay [2], in [3], in assay [4], in assay [5] and in [6] was > 100 µM (inactive) throughout. Besides, the GI50 in [7], in assay [8], in [9], in [10], in [11] and in assay [12] was > 100 µM (inactive) each time. Further, the GI50 in assay [13] is > 100 µM (inactive); in assay [14], > 100 µM (inactive); in assay [15], > 100 µM (inactive); in [16], > 100 µM (inactive); in assay [17] it was > 100 µM; in [18], > 100 µM (inactive). Further, the GI50 in assay [19] was > 100 µM (inactive).

Consider `Nc1nc(N)nc(-c2cnc3ccccc3c2)n1`, for which the GI50 in assay [1] was > 100 µM (inactive); in assay [2] it was > 100 µM (inactive); in assay [3], > 100 µM (inactive); in [4], > 100 µM (inactive); in [6] it was 85.7 µM (inactive); in assay [7], 87.9 µM (inactive). The GI50 in assay [8] was > 100 µM (inactive); in [9], > 100 µM (inactive); in assay [10], > 100 µM (inactive); in assay [11], 38.4 µM (inactive); in [12], > 100 µM (inactive); in [13], > 100 µM (inactive). For the same molecule, the GI50 in assay [14] is > 100 µM (inactive); in [15], > 100 µM (inactive); in assay [16], > 100 µM (inactive); in assay [17] it was > 100 µM; in assay [18] it was > 100 µM (inactive).

As for `O=C(Cc1ccccc1)N/N=C1\C(=O)Nc2ccccc21`, the GI50 in assay [1] is > 100 µM (inactive); in assay [2], 48.1 µM (inactive); in assay [3] it was > 100 µM (inactive); in [4], 70.5 µM (inactive); in [5], > 100 µM (inactive); in assay [6], 37.2 µM (inactive). Further, the GI50 was > 100 µM (inactive) in [7]; > 100 µM (inactive) in [8]; 25.8 µM (inactive) in assay [9]; > 100 µM (inactive) in assay [10]; 72.1 µM (inactive) in assay [11]; 31.6 µM (inactive) in assay [12]. The GI50 is > 100 µM (inactive) in assay [15]; > 100 µM (inactive) in assay [16]; 62.8 µM in assay [17]; > 100 µM (inactive) in assay [18]; 95.9 µM (inactive) in assay [19].
